Reference: patent US12729458B2, “Discovery and evolution of biologically active metabolites” (The Regents of the University of Colorado, a Body Corporate, priority 2020, dated 2026)
“Also recorded” adds a separate entry of the source. Like-named read-outs stand apart in the source and are kept apart here.

What was measured:
SHP2 (SHP2223-565) = biological target: T1, SHP2 (SHP2223-565) (Homo sapiens, UniProt Q06124); test: SHP2-catalyzed hydrolysis of 4-MUP in the presence of terpenoids; type: biochemical, H. sapiens; settings: for Ki: SHP2223-565
T1 construct: made in house; host or cells: E. coli BL21 (DE3)
T1 sequence (Q06124 223-565 limits assumed): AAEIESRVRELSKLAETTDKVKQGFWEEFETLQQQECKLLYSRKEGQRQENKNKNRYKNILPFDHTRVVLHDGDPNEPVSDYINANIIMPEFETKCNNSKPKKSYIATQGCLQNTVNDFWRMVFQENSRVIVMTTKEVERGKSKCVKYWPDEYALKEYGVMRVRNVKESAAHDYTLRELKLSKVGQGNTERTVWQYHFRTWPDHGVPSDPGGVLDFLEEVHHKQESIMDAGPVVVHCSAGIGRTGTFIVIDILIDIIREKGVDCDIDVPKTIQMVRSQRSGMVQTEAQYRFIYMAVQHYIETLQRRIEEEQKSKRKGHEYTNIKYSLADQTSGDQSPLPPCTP
Procedure: Enzyme kinetics. To examine terpenoid-mediated inhibition, we measured PTP-catalyzed hydrolysis of p-nitrophenyl phosphate (pNPP) or 4-methylumbelliferyl phosphate (4-MUP, used when KM for pNPP was large) in the presence of various concentrations of terpenoids. Each reaction included PTP (0.05 μM PTP1B/TCPTP or 0.1 μM SHP1/SHP2 in 50 mM HEPES, 0.5 mM TCEP, 50 μg/ml BSA), pNPP (0.33, 0.67, 2, 5, 10, and 15 mM) or 4-MUP (0.13, 0.27, 0.8, 2.27, 2.93, 4.53, 7.07, and 8 mM), inhibitor (with concentrations listed in the figures), buffer (50 mM HEPES pH=7.3, 50 μg/ml BSA), and DMSO at 10% v/v. We monitored the formation of p-nitrophenol by measuring absorbance at 405 nm every 10 seconds for 5 minutes on a SpectraMax M2 plate reader and the formation of 4-methylumbelliferyl by measuring fluorescence at 450 nm (370 nm ex, 435 nm cutoff, medium gain).
We used a custom MATLAB script to process all raw kinetic data. This script removed all concentration values that fell outside of either (i) the range of our standard curve (absorbance/fluorescence vs. μM; FIG. 39) or (ii) the initial rate regime (>10% of the pNPP or 4-MUP concentration used in the assay). When this step reduced kinetic dataset to fewer than ten points, we re-measured those datasets to collect at least ten. We fit final datasets, in turn, with a linear regression model (using Matlab's backslash operator).
We evaluated kinetic models in three steps: (i) We fit initial-rate measurements collected in the absence and presence of inhibitors to Michaelis-Menten and inhibition models, respectively (here, we used the nlinfit and fminsearch functions from MATLAB; TABLE 12). (ii) We used an F-test to compare the mixed model to the single-parameter model with the least sum squared error (here, we used the fedf function from MATLAB to assign p-values), and we accepted the mixed model when p<0.05. (iii) We used the Akaike's Information Criterion (AIC) to compare the best-fit single parameter model to each alternative single parameter model, and we accepted the “best-fit” model when the difference in AIC (Δi) exceed 5 for all comparisons.^78 We note: For AD, AB, and (+) 1-(10),4-cadinadiene this criterion was not met; both noncompetitive and uncompetitive models, however, yielded indistinguishable ICso's.
We used the MATLAB function “nlparci” to determine the confidence intervals of kinetic parameters, and we propagated those intervals to estimate corresponding confidence intervals for each IC50.

[1] = tested on: insulin receptor (IR) phosphorylation (PTP1B-mediated) in HEK293T/17 cells; test: ELISA of insulin receptor (IR) phosphorylation in HEK293T/17 cells; type: cell-based; settings: for IR phosphorylation (ELISA signal): 3% DMSO, 10 minutes, starved HEK293T/17 cells, vs 3% DMSO control; for Δμ, null hypothesis compound-(−) = 0: difference of means vs negative control (−)
Source text: Analysis of PTP1B inhibition in HEK293TCells. We prepared HEK293T/17 cells for an enzyme-linked immunosorbent assay (ELISA) by growing them in 75 cm^2 culture flasks (Corning) with DMEM media supplemented with 10% FBS, 100 units/ml penicillin, and 100 units/ml streptomycin. We replaced the media every day for 3-5 days until the cells reached 80-100% confluency.
We measured the influence of inhibitors on insulin receptor (IR) phosphorylation by using an IR-specific ELISA (FIG. 35). Briefly, we starved cells for 48 hours in FBS-free media and incubated the with inhibitors (all at 3% DMSO) for 10 minutes. After incubation, we lysed cells with lysis buffer (9803, Cell Signaling Technology) supplemented with 1× halt phosphatase inhibitor cocktail and 1× halt protease inhibitor cocktail (Thermo Fisher Scientific) for 10 min, pelleted the cell debris, and used the lysis buffer to dilute each sample to 60 mg/ml total protein. We measured IR phosphorylation in subsequent dilutions of the 60 mg/ml samples with the PathScan® Phospho-Insulin Receptor β (panTyr) Sandwich ELISA Kit (Cell Signaling Technology; #7082).
Statistical analysis and reproducibility. We determined statistical significance (FIG. 23H) with a two-tailed Student's t-test (details in TABLE 14), and we used an F-test to compare one- and two-parameter models of inhibition (TABLE 12).

[2] = FIG. 3h, t-test, unequal variance

Structure (SMILES)	potency against SHP2 relative to PTP1B (SHP2 (SHP2223-565); 4-MUP, less potent on SHP2)	Ki (SHP2 (SHP2223-565); competitive model of inhibition, read-out: Fit par. Ki, competitive model) [µM]	Ki (SHP2 (SHP2223-565); mixed model, competitive constant, read-out: Fit par. Ki,c, mixed model) [µM]	Ki (SHP2 (SHP2223-565); mixed model, uncompetitive constant, read-out: Fit par. Ki,u, mixed model) [µM]	Ki (SHP2 (SHP2223-565); noncompetitive model of inhibition, read-out: Fit par. Ki, noncompetitive model) [µM]	Ki (SHP2 (SHP2223-565); uncompetitive model of inhibition, read-out: Fit par. Ki, uncompetitive model) [µM]	IR phosphorylation (ELISA signal) ([1]; 930 μM)	IR phosphorylation (ELISA signal) ([1]; 930 μM, listed as AD)	IR phosphorylation (ELISA signal) ([1]; 930 μM, listed as Amorphadiene)	Δμ, null hypothesis AD-DHA = 0 ([1]; difference of means AD vs DHA, FIG. 3h, t-test, unequal variance)	Δμ, null hypothesis compound-(−) = 0 [1, 2]	inhibition of SHP2 (SHP2 (SHP2223-565); 4-MUP)	% inhibition of SHP2 (SHP2 (SHP2223-565); at the solubility limit, 4-MUP) [%]	IR phosphorylation (ELISA signal) ([1]; 405 μM)	IR phosphorylation (ELISA signal) ([1]; 405 μM, listed as AB)	Δμ, null hypothesis AB-ABOL = 0 ([1]; difference of means AB vs ABOL, FIG. 3h, t-test, unequal variance)
C=C(C)[C@@H]1CC[C@@H](C)[C@@H]2CCC(C)=C[C@@H]21 [amorphadiene]	three-fold	25.1	236	132	146	117	inhibit PTP1B inside of a HEK293T/17 cell; also recorded: can increase IR phosphorylation over a negative control	increased IR phosphorylation over a negative control	stimulate IR phosphorylation	0.124	0.212					
CC(C)=CCC=C(C)C1CC=C(C)CC1 (stereo not drawn) [α-bisabolene]											0.310	low potency	≤ 25	stimulate IR phosphorylation; also recorded: can increase IR phosphorylation over a negative control	increased IR phosphorylation over a negative control	0.309
